In US6609014B1, “Use of PDT to inhibit intimal hyperplasia” (QLT Inc., priority 1999, dated 2003):

Test system: PCNA positive (proliferating) cells in the vein
Assay: PCNA immunocytochemistry of AV fistula veins 48 hours after PDT
Type: in vivo, Domestic swine
Experimental: In Example 4, immunohistochemistry was use to study the early phase of cell proliferation. Immunocytochemistry for the proliferating cell nuclear antigen (PCNA, mouse antibody clone PC10, Sigma) was used to assess cell proliferation in the vein. PCNA positive cells were counted using the Optimas image analysis program.
For the purposes of determining the early cellular effects of PDT on the vein, bilateral AV fistulae were created in six pigs and treated sides were given 0.15 mg BPD-MA (0.15 mg/2 mL) and 40 minutes OR light. After 48 hours these pigs were sacrificed and the fistulae were recovered and processed for histological evaluation. This is not enough time for IH to have developed, but the cellular activation which leads to IH may be detectable. […] Immunocytochemistry for the proliferating cell nuclear antigen (PCNA) was used to assess cell proliferation in the tissue (Table 3).

[1] = 0.15 mg BPD-MA (0.15 mg/2 mL), 40 minutes OR light, six pigs

Substance: benzoporphyrin derivative monoacid ring A [BPD-MA]
- MEAN PERCENT OF PCNA POSITIVE CELLS PER TISSUE AREA, PDT, BLOCK 1 [1]: 0.33%
- MEAN PERCENT OF PCNA POSITIVE CELLS PER TISSUE AREA, PDT, BLOCK 2 [1]: 0.74%
- MEAN PERCENT OF PCNA POSITIVE CELLS PER TISSUE AREA, PDT, BLOCK 3 [1]: 0.65%
- Reduction of number of proliferating cells at the anastomosis of the vein (low-dose PDT (0.15 mg BPD-MA)): 2 fold
